Experimental data reported in US20050209278A1, “Piperidinyl- and piperazinyl-sulfonylmethyl hydroxamic acids and their use as protease inhibitors” (priority 2002, published 2005).
Where a name gives a salt, the structure may show the parent alone.

Biological target: T1, MMP-1 (Homo sapiens, UniProt P03956)
T1 construct: made in house; host or cells: MMP-1-transfected HT-1080 cells (spent media)
T1 sequence (P03956 100-469): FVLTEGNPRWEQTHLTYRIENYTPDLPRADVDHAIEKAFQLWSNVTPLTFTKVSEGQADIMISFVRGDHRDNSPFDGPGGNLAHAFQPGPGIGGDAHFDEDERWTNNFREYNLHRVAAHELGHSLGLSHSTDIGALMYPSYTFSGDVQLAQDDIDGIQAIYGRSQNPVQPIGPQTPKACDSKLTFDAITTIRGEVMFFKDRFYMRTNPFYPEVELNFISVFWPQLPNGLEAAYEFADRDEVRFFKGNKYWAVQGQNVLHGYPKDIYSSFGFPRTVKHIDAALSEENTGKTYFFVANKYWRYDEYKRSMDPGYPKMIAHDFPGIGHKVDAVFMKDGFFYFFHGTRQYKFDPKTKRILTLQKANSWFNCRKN
Assay: In vitro MMP inhibition, Ki determination (fluorogenic substrate II)
Type: biochemical
Conditions: human recombinant enzyme; 4 μM substrate II; room temperature, 1 hr; read-out: MMP-1 Ki
Method: Several hydroxamic acids and salts thereof were analyzed in in vitro assays to determine their ability to inhibit the MMP cleavage of peptide substrates. […] and IC50 constants were calculated from the assayed hydroxamic acid-MMP interactions.
Human recombinant MMP-1, MMP-2, MMP-9, MMP-13, and MMP-14 were used in this assay. All enzymes were prepared in Assignee's laboratories following usual laboratory procedures. Protocols for the preparation and use of these enzymes are available in the scientific literature. See, e.g., Enzyme Nomenclature (Academic Press, San Diego, Calif., 1992) (and the citations therein). See also, Freije et al., “Molecular cloning and expression of collagenase-3, a novel human matrix metalloproteinase produced by breast carcinomas,” J Biol. Chem., 269(24), 16766-16773 (1994).
The MMP-1 proenzyme was purified from the spent media of MMP-1-transfected HT-1080 cells provided by Dr. Harold Welgus of Washington University (St. Louis, Mo.). The protein was purified on a zinc chelating column.
All MMPs were activated using 4-aminophenylmercuric acetate (“APMA”, Sigma Chemical, St. Louis, Mo.) or trypsin. MMP-9 also was activated using human recombinant MMP-3 (purified in Assignee's laboratory following standard cloning and purification techniques).
Two fluorogenic, methoxycoumarin-containing polypeptide substrates were used in the MMP inhibition assays: [drawing 427] Here, “Dpa” is 3-(2,4-dinitrophenyl)-L-2,3-diaminopropionyl group, and “MCA” is 7-methoxycoumarin-4-yl acetyl. Substrate (I) was purchased from Baychem (Redwood City, Calif.), and substrate II was prepared Assignee's laboratory. Substrate I was used in the IC50 determination assays, while substrate II was used in the Ki determination assays. In the absence of MMP inhibitory activity, either substrate is cleaved at the Gly-Leu peptide bond. This cleavage separates the highly fluorogenic peptide from the 2,4-dinitrophenyl quencher, thus resulting in increase of fluorescent intensity.
The stock solutions of the assayed hydroxamic acids (or salts thereof) were prepared in 1% dimethyl sulfoxide (DMSO). These stock solutions were diluted in Buffer A (100 mM Tris-HCl, 100 mM NaCl, 10 mM CaCl2, 0.05% polyoxyethylene 23 lauryl ether, pH 7.5) to obtain solutions with different hydroxamic acid concentrations, i.e., assay solutions with different concentrations of the assayed MMP inhibitory compound. The experiment controls contained the same amount of Buffer A/DMSO as the assayed sample, but contained no hydroxamic acid (or salt thereof).
The assays from which the Ki determinations were made were performed as follows. The assayed hydroxamic acid samples were incubated in separate wells of untreated white polystyrene plates (Nunc Nalgene International, Rochester, N.Y.), and analyzed on a Tecan SpectraFlour Plus plate reader. The excitation wavelength was 330 nm, and the emission wavelength—420 nm. All samples (assayed hydroxamic acids and controls) were incubated in separate plate wells at room temperature for 1 hr in the presence of 4 μM of MMP substrate (II). In the absence of MMP inhibitory activity, substrate II was cleaved at the Gly-Leu bond resulting in an increase of relative fluorescence. Inhibition was observed as a reduced rate of this increase in relative fluorescence. The various hydroxamic acids were analyzed using a single low enzyme concentration with a single substrate concentration fixed at or below the Km. This protocol is a modification of method by Knight et al., FEBS Lett., 296(3), 263-266 (1992). Apparent inhibitory constants were determined by non-linear regression of reaction velocity as a function of inhibitor and enzyme concentration using Morrison's equation, as described by Kuzmic, Anal. Biochem. 286, 45-50 (2000). […] Since the substrate concentration was chosen to be at or below the Km, the apparent Ki's from this analysis were reported as Ki's without correction for the influence of substrate.

Ki | SMILES
> 10 µM | O=C(NO)C1(S(=O)(=O)N2CCN(c3ccc(OCC(F)(F)F)cc3)CC2)CCOCC1 [Example 2, N-hydroxy-4-({4-[4-(2,2,2-trifluoroethoxy)phenyl]piperazin-1-yl}sulfonyl)tetrahydro-2H-pyran-4-carboxamide Hydrochloride]
1.47 µM | O=C(NO)C1(S(=O)(=O)N2CCN(c3ccc(OC(F)(F)C(F)F)cc3)CC2)CCOCC1 [Example 4, 4-({4-[4-(1,1,2,2-tetrafluoroethoxy)phenyl]piperazinyl}sulfonyl)perhydro-2H-pyran-4-carbohydroxamic Acid]
> 10 µM | COCCOc1ccc(N2CCN(S(=O)(=O)C3(C(=O)NO)CCOCC3)CC2)cc1 [Example 14, N-hydroxy-4-({4-[4-(2-methoxyethoxy)phenyl]piperazin-1-yl}sulfonyl)tetrahydro-2H-pyran-4-carboxamide Hydrochloride]
> 10 µM | O=C(NO)C1(S(=O)(=O)N2CCN(c3ccc(CCC(F)(F)C(F)(F)F)cc3)CC2)CCOCC1 [Example 17, N-hydroxy-4-({4-[4-(3,3,4,4,4-pentafluorobutyl)phenyl]piperazin-1-yl}sulfonyl)tetrahydro-2H-pyran-4-carboxamide Hydrochloride]
7.35 µM | O=C(NO)C1(S(=O)(=O)N2CCC(c3ccc(CCC(F)(F)C(F)(F)F)cc3)CC2)CCOCC1 [Example 18, N-hydroxy-4-({4-[4-(3,3,4,4,4-pentafluorobutyl)phenyl]piperidin-1-yl}sulfonyl)tetrahydro-2H-pyran-4-carboxamide]
> 10 µM | CCCCCc1ccc(N2CCN(S(=O)(=O)C3(C(=O)NO)CCN(C(=O)C(F)(F)F)CC3)CC2)cc1 [Example 21, N-hydroxy-4-{[4-(4-pentylphenyl)piperazin-1-yl]sulfonyl}-1-(trifluoroacetyl)piperidine-4-carboxamide Hydrochloride]
> 10 µM | CCCCCc1ccc(N2CCN(S(=O)(=O)C3(C(=O)NO)CCN(CC)CC3)CC2)cc1F [Example 22, 1-ethyl-4-{[4-(3-fluoro-4-pentylphenyl)piperazin-1-yl]sulfonyl}-N-hydroxypiperidine-4-carboxamine Hydrochloride]

The remaining lines, values behind:

SMILES | Ki
CCCCc1cnc(N2CCN(S(=O)(=O)C3(C(=O)NO)CCOCC3)CC2)cn1 [Example 1, 4-{[4-(5-butylpyrazin-2-yl)piperazin-1-yl]sulfonyl}-N-hydroxytetrahydro-2H-pyran-4-carboxamide Dihydrochloride] | > 10 µM
CCOc1ccc(N2CCN(S(=O)(=O)C3(C(=O)NO)CCOCC3)CC2)cc1 [Example 3, 4-{[4-(4-ethoxyphenyl)piperazinyl]sulfonyl}perhydro-2H-pyran-4-carbohydroxamic Acid] | 7.53 µM
CCCCc1ccc(N2CCN(S(=O)(=O)C3(C(=O)NO)CCN(CCOC)CC3)CC2)cc1 [Example 5, 4-{[4-(4-butylphenyl)piperazin-1-yl]sulfonyl}-N-hydroxy-1-(2-methoxyethyl)piperidine-4-carboxamide Dihydrochloride] | > 10 µM
CCCCCc1ccc(N2CCN(S(=O)(=O)C3(C(=O)NO)CCN(CCOC)CC3)CC2)cc1 [Example 6, N-Hydroxy-1-(2-methoxyethyl)-4-{[4-(4-pentylphenyl)piperazin-1-yl]sulfonyl}piperidine-4-carboxamide Dihydrochloride] | > 10 µM
O=C(NO)C1(S(=O)(=O)N2CCN(c3ccc(OCCCC(F)(F)F)cc3)CC2)CCOCC1 [Example 7, N-hydroxy-4-({4-[4-(4,4,4-trifluorobutoxy)phenyl]piperazin-1-yl}sulfonyl)tetrahydro-2H-pyran-4-carboxamide Hydrochloride] | > 10 µM
COc1ccc(-c2cnc(N3CCN(S(=O)(=O)C4(C(=O)NO)CCOCC4)CC3)nc2)cc1 [Example 8, N-hydroxy-4-({4-[5-(4-methoxyphenyl)pyrimidin-2-yl]piperazin-1-yl}sulfonyl)tetrahydro-2H-pyran-4-carboxamide Hydrochloride] | 0.748 µM
COCCN1CCC(C(=O)NO)(S(=O)(=O)N2CCN(c3ccc(OCCCC(F)(F)F)cc3)CC2)CC1 [Example 9, N-hydroxy-1-(2-methoxyethyl)-4-({4-[4-(4,4,4-trifluorobutoxy)phenyl]piperazin-1-yl}sulfonyl)piperidine-4-carboxamide Dihydrochloride] | > 10 µM
O=C(NO)C1(S(=O)(=O)N2CCN(c3ccc(OCC4CC4)c(F)c3)CC2)CCN(C2CC2)CC1 [Example 10, 1-cyclopropyl-4-[[4-[4-(cyclopropylmethoxy)-3-fluorophenyl]-1-piperazinyl]sulfonyl]-N-hydroxy-4-piperidinecarboxamide, dihydrochloride] | > 10 µM
CCCCOc1ccc(N2CCN(S(=O)(=O)C3(C(=O)NO)CCN(CCOC)CC3)CC2)cc1F [Example 11, 4-[[4-(4-butoxy-3-fluorophenyl)-1-piperazinyl]sulfonyl]-N-hydroxy-1-(2-methoxyethyl)-4-piperidinecarboxamide, Dihydrochloride] | > 10 µM
O=C(NO)C1(S(=O)(=O)N2CCN(c3ccc(-c4ccccc4)c(F)c3)CC2)CCOCC1 [Example 12, 4-{[4-(2-fluoro-1,1′-biphenyl-4-yl)piperazin-1-yl]sulfonyl}-N-hydroxytetrahydro-2H-pyran-4-carboxamide Hydrochloride] | > 10 µM
CCCCCc1ccc(N2CCN(S(=O)(=O)C3(C(=O)NO)CCN(CCOC)CC3)CC2)cc1F [Example 13, 4-{[4-(3-fluoro-4-pentylphenyl)piperazin-1-yl]sulfonyl}-N-hydroxy-1-(2-methoxyethyl)piperidine-4-carboxamide Dihydrochloride] | > 10 µM
CCCCCc1ccc(C2CCN(S(=O)(=O)C3(C(=O)NO)CCN(CCOC)CC3)CC2)cc1 [Example 15, N-hydroxy-1-(2-methoxyethyl)-4-{[4-(4-pentylpheyl)piperidin-1-yl]sulfonyl}piperidine-4-carboxamide Hydrochloride] | > 10 µM
CCCCOc1ccc(C2CCN(S(=O)(=O)C3(C(=O)NO)CCN(CCOC)CC3)CC2)cc1 [Example 16, 4-{[4-(4-butoxyphenyl)piperidin-1-yl]sulfonyl}-N-hydroxy-1-(2-methoxyethyl)piperidine-4-carboxamide Hydrochloride] | > 10 µM
CCCCc1ccc(C2CCN(S(=O)(=O)C3(C(=O)NO)CCOCC3)CC2)s1 [Example 19, 4-{[4-(5-butylthien-2-yl)piperidin-1-yl]sulfonyl}-N-hydroxytetrahydro-2H-pyran-4-carboxamide] | > 10 µM
COCCN1CCC(C(=O)NO)(S(=O)(=O)N2CCC(c3ccc(OCCCC(F)(F)F)cc3)CC2)CC1 [Example 20, N-hydroxy-1-(2-methoxyethyl)-4-({4-[4-(4,4,4-trifluorobutoxy)phenyl]piperidin-1-yl}sulfonyl)piperidine-4-carboxamide Hydrochloride] | > 10 µM
CCCCCc1ccc(N2CCN(S(=O)(=O)C3(C(=O)NO)CCOCC3)CC2)c(F)c1 [Example 23, 4-{[4-(2-fluoro-4-pentylphenyl)piperazin-1-yl]sulfonyl}-N-hydroxytetrahydro-2H-pyran-4-carboxamide Hydrochloride] | > 10 µM
